US9497972B2, “Compositions comprising a biological control agent and an insecticide” (priority 2012, dated 2016)

What was measured:
Assay type in all cases: in vivo
Myzus persicae [1] = test: Myzus persicae spray test (MYZUPE), Example A: Chinese cabbage leaf-disks
Description: (§1) For all examples efficiencies of the compositions comprising at least one BCA and at least one specific insecticide has been determined by the “Colby-formula”: The expected efficacy of a given combination of two compounds is calculated as follows (see Colby, S. R., “Calculating Synergistic and antagonistic Responses of Herbicide Combinations”, Weeds 15, pp. 20-22, 1967):
(§2) If • X is the efficacy expressed in % mortality of the untreated control for test compound A at a concentration of m ppm respectively m g/ha, • Y is the efficacy expressed in % mortality of the untreated control for test compound B at a concentration of n ppm respectively n g/ha, • E is the efficacy expressed in % mortality of the untreated control using the mixture of A and B at m and n ppm respectively m and n g/ha, then is E=X+Y−(X×Y/100)
(§3) If the observed insecticidal efficacy of the combination is higher than the one calculated as “E”, then the combination of the two compounds is more than additive, i.e., there is a synergistic effect.
Myzus persicae—Spray Test (MYZUPE)
(§4) To produce a suitable preparation of active compound, 1 part by weight of active compound is mixed with the stated amount of solvent and emulsifier, and the concentrate is diluted with emulsifier-containing water to the desired concentration. To produce a suitable preparation of a spore suspension the spores are diluted with emulsifier-containing water to the desired concentration.
Chinese cabbage (Brassica pekinensis) leaf-disks infected with all instars of the green peach aphid (Myzus persicae), are sprayed with a preparation of the active ingredient of the desired concentration.
After the specified period of time, mortality in % is determined. 100% means all aphids have been killed; 0% means none of the aphids have been killed. The mortality values determined thus are recalculated using the Colby-formula (see above).

Phaedon cochleariae = Phaedon cochleariae spray test, Example C: Chinese cabbage leaf-disks
Description: as §1, §2, §3
Phaedon cochleariae—Spray Test
as §4
Chinese cabbage (Brassica pekinensis) leaf-disks are sprayed with a preparation of the active ingredient of the desired concentration. Once dry, the leaf disks are infested with mustard beetle larvae (Phaedon cochleariae).
After the specified period of time, mortality in % is determined. 100% means all beetle larvae have been killed and 0% means none of the beetle larvae have been killed. The mortality values determined thus are recalculated using the Colby-formula (see above).

Myzus persicae [2] = test: Myzus persicae spray test, Example E: cabbage leaves (Brassica oleracea); conditions: 1 ppm
Description: as §1, §2, §3
Myzus persicae—Spray Test […]
(§5) After the specified period of time, mortality in % is determined. […] The mortality values determined thus are recalculated using the Colby-formula (see above).

Spodoptera frugiperda = Spodoptera frugiperda spray test, Example D: maize leaf sections
Description: as §1, §2, §3
Spodoptera frugiperda—Spray Test
To produce a suitable preparation of the active compound, 1 part by weight of active compound is mixed with the stated amount of solvent and emulsifier, and the concentrate is diluted with emulsifier-containing water to the desired concentration. To produce a suitable preparation of a spore suspension the spores are diluted with emulsifier-containing water to the desired concentration.
Maize (Zea mais) leaf sections are sprayed with a preparation of the active ingredient of the desired concentration. Once dry, the leaf sections are infested with fall armyworm larvae (Spodoptera frugiperda).
After the specified period of time, mortality in % is determined. 100% means all caterpillars have been killed and 0% means none of the caterpillars have been killed. The mortality values determined thus are recalculated using the Colby-formula (see above).

Tetranychus urticae = Tetranychus urticae spray test, OP-resistant, Example B: French beans
Description: as §1, §2, §3
Tetranychus urticae—Spray Test, OP-Resistant […]
as §5

With `CN/C(=N\[N+](=O)[O-])NCc1cnc(Cl)s1` [Clothianidin (I142), Clothianidin] as the compound, how does the “Efficacy in % after 1^d” value (Myzus persicae [1]; 0.8 g/ha) read?
Its value is 70%.

And the “Efficacy in % after 6^d” value (Myzus persicae [1]; 4 g/ha)?
The value was 70%.

What about the “Efficacy in % after 2^d” value (Phaedon cochleariae; 20 g ai/ha) of the same compound?
Its value is 0%.

Which “Efficacy in % after 6^d” value (Myzus persicae [1]; 0.032 g/ha) does the source give for `O=[N+]([O-])NC1=NCCN1Cc1ccc(Cl)nc1` [Imidacloprid (I144), Imidacloprid] here?
The value was 0%.

And the “Efficacy in % after 1^d” value (Myzus persicae [1]; 0.16 g/ha)?
Its value is 0%.

What about the “Efficacy in % after 1^d” value (Myzus persicae [1]; 0.4 g/ha) of the same compound?
The value was 70%.

How did the “Efficacy in % after 6^d” value (Myzus persicae [1]; 0.08 g/ha) turn out when `CC(c1ccc(C(F)(F)F)nc1)S(C)(=O)=NC#N` (centres unmarked) [Sulfoxaflor (I149), Sulfoxaflor] was run?
Its value is 70%.

And the “Efficacy in % after 6^d” value (Myzus persicae [1]; 0.4 g/ha)?
Its value is 70%.

What does the source list for `N#C/N=C1\SCCN1Cc1ccc(Cl)nc1` [Thiacloprid (I146), Thiacloprid]?
Efficacy in % after 6^d (Myzus persicae [1]; 0.16 g/ha): 0%; Efficacy in % after 6^d (Myzus persicae [1]; 0.8 g/ha): 70%; Efficacy in % after 1^d (Myzus persicae [2]): 35%

Which “Efficacy in % after 6^d” value (Myzus persicae [1]; 0.16 g/ha) does the source give for `CN1COCN(Cc2cnc(Cl)s2)/C1=N\[N+](=O)[O-]` [Thiamethoxam (I147), Thiamethoxam] here?
The value was 0%.

What about the “Efficacy in % after 1^d” value (Myzus persicae [1]; 0.4 g/ha) of the same compound?
The value was 0%.

What about the “Efficacy in % after 1^d” value (Myzus persicae [1]; 2 g/ha) of the same compound?
Its value is 0%.

For Spinetoram [Spinetoram (I150)], which “Efficacy in % after 6^d” value (Phaedon cochleariae; 0.16 g ai/ha) is on record?
Its value is 0%.

And the “Efficacy in % after 6^d” value (Phaedon cochleariae; 0.8 g ai/ha)?
Its value is 33%.

And the “Efficacy in % after 2^d” value (Spodoptera frugiperda; 0.16 g ai/ha)?
The value was 67%.

How did the “Efficacy in % after 6^d” value (Myzus persicae [1]; 20 g/ha) turn out when Spinosad [Spinosad (I151)] was run?
The value was 0%.

What about the “Efficacy in % after 6^d” value (Tetranychus urticae; 4 g ai/ha) of the same compound?
The value was 0%.

And the “Efficacy in % after 2^d” value (Tetranychus urticae; 20 g ai/ha)?
The value was 50%.

What about the “Efficacy in % after 6^d” value (Phaedon cochleariae; 4 g ai/ha) of the same compound?
The value was 0%.

And the “Efficacy in % after 6^d” value (Spodoptera frugiperda; 0.16 g ai/ha)?
Its value is 0%.

What about the “Efficacy in % after 2^d” value (Spodoptera frugiperda; 0.8 g ai/ha) of the same compound?
Its value is 0%.
